The source of these data is patent US11661426B2, “Imidazole-containing inhibitors of ALK2 kinase” (BioCryst Pharmaceuticals, Inc., priority 2017, dated 2023).

Bounds are passed on as bounds.

Chain of ALK2 (Q04771 21-509): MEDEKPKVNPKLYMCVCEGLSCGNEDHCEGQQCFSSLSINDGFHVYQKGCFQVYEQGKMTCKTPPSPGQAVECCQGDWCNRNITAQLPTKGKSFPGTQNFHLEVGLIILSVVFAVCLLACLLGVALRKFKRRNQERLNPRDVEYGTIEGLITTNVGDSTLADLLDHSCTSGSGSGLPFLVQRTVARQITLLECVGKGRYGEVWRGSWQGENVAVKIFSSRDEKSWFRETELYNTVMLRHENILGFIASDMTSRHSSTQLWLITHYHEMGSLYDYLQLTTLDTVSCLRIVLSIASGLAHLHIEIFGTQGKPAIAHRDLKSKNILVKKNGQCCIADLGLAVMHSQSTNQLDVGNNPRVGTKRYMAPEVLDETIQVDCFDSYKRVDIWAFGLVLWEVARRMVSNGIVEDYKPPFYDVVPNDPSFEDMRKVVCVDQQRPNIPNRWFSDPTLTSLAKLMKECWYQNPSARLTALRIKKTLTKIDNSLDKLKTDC

In this assay the target is ALK2 (Homo sapiens (Human), UniProt Q04771). As to the kind of experiment: ALK2 inhibition, LanthaScreen Eu Kinase Binding Assay (ThermoFisher Scientific / Life Technologies). The settings on record: read-out: Measured Ki (IC50) Value for Compounds: IC50. As for the experimental part:
Biochemical assays to measure the inhibitory effects of the compounds were performed by ThermoFisher Scientific (Life Technologies). ALK2 inhibition was tested using LanthaScreen™ Eu Kinase Binding Assay screening protocol.
For the molecule `COc1cc(-n2cnc(Nc3nc(N4CCC[C@H]4CO)nc4cc(C#N)ccc34)c2)cc(OC)c1OC` [Compound 347a, (S)-2-(2-(hydroxymethyl)pyrrolidin-1-yl)-4-((1-(3,4,5-trimethoxyphenyl)-1H-imidazol-4-yl)amino)quinazoline-7-carbonitrile], the IC50 is under 100 nM.
For `COc1cc(-n2cnc(Nc3nc(N4CCC[C@@H]4CO)nn4c(CN5CCCCC5)ccc34)c2)cc(OC)c1OC` [Compound 348a, (R)-(1-(7-(piperidin-1-ylmethyl)-4-((1-(3,4,5-trimethoxyphenyl)-1H-imidazol-4-yl)amino)pyrrolo[2,1-f][1,2,4]triazin-2-yl)pyrrolidin-2-yl)methanol] the value was under 100 nM; for `COc1cc(-n2cnc(Nc3nc(N4CCC[C@@H]4C(N)=O)nn4c(CN5CCCCC5)ccc34)c2)cc(OC)c1OC` [Compound 349a, (R)-1-(7-(piperidin-1-ylmethyl)-4-((1-(3,4,5-trimethoxyphenyl)-1H-imidazol-4-yl)amino)pyrrolo[2,1-f][1,2,4]triazin-2-yl)pyrrolidine-2-carboxamide], under 100 nM; for `COC(=O)c1cc(-n2cnc(Nc3nc(N4CCC[C@H]4C(N)=O)nn4cccc34)c2)cc(OC)c1OC` [Compound 350d, (S)-methyl 5-(4-((2-(2-carbamoylpyrrolidin-1-yl)pyrrolo[2,1-f][1,2,4]triazin-4-yl)amino)-1H-imidazol-1-yl)-2,3-dimethoxybenzoate], under 100 nM.
For `COc1cc(-n2cnc(Nc3nc(N4CCC[C@H]4C(N)=O)nn4cccc34)c2)cc(C(=O)NC2CCCC2)c1O` [Compound 351d, (S)-1-(4-((1-(3-(cyclopentylcarbamoyl)-4-hydroxy-5-methoxyphenyl)-1H-imidazol-4-yl)amino)pyrrolo[2,1-f][1,2,4]triazin-2-yl)pyrrolidine-2-carboxamide], the concentration for half-maximal inhibition (IC50) was over 1000 nM.
As for `OC[C@@H]1CCCN1c1nc(Nc2nc3ccccc3o2)c2sccc2n1` [Compound 352c, (S)-(1-(4-(benzo[d]oxazol-2-ylamino)thieno[3,2-d]pyrimidin-2-yl)pyrrolidin-2-yl)methanol], the IC50 is over 1000 nM.
To `Nc1n[nH]c2ccccc12` [Compound 353a, 1H-indazol-3-amine] belongs over 1000 nM; to `OC[C@@H]1CCCN1c1nc(Nc2cc(-c3ccccc3)[nH]n2)nc2ccoc12` [Compound 354b, (S)-(1-(2-((5-phenyl-1H-pyrazol-3-yl)amino)furo[3,2-d]pyrimidin-4-yl)pyrrolidin-2-yl)methanol], over 1000 nM.
To `COC(=O)c1cc(-n2cnc(Nc3nc(N4CCC[C@H]4CO)c4cccn4n3)c2)cc(OC)c1OC` [Compound 355a, (S)-methyl 5-(4-((4-(2-(hydroxymethyl)pyrrolidin-1-yl)pyrrolo[2,1-f][1,2,4]triazin-2-yl)amino)-1H-imidazol-1-yl)-2,3-dimethoxybenzoate] belongs under 100 nM; to `COc1cc(-n2cnc(Nc3nc(N4CCC[C@H]4CO)c4ccc(C#N)cc4n3)c2)cc(OC)c1OC` [Compound 356b, (S)-4-(2-(hydroxymethyl)pyrrolidin-1-yl)-2-((1-(3,4,5-trimethoxyphenyl)-1H-imidazol-4-yl)amino)quinazoline-7-carbonitrile], under 100 nM.
Take `COc1cc(-c2ccc(Nc3nc(N4CCC[C@H]4CO)c4ccccc4n3)nc2)cc(OC)c1OC` [Compound 357d, (S)-(1-(2-((5-(3,4,5-trimethoxyphenyl)pyridin-2-yl)amino)quinazolin-4-yl)pyrrolidin-2-yl)methanol]: the IC50 was over 1000 nM.
`COc1cc(-n2cnc(Nc3nc(N4CCC[C@H]4CO)nc4cc(N5CCCCC5)ccc34)c2)cc(OC)c1OC` [Compound 358a, (S)-(1-(7-(piperidin-1-yl)-4-((1-(3,4,5-trimethoxyphenyl)-1H-imidazol-4-yl)amino)quinazolin-2-yl)pyrrolidin-2-yl)methanol]: the 50% inhibitory concentration (IC50) is under 100 nM.
Take `COc1cc(-n2cnc(Nc3nc4c(c(N5CCC[C@H]5CO)n3)CN(C(=O)OC(C)(C)C)C4)c2)cc(OC)c1OC` [Compound 359c, (S)-tert-butyl 4-(2-(hydroxymethyl)pyrrolidin-1-yl)-2-(1-(3,4,5-trimethoxyphenyl)-1H-imidazol-4-ylamino)-5H-pyrrolo[3,4-d]pyrimidine-6(7H)-carboxylate]: the IC50 was under 100 nM.
As to `COc1cc(-n2cnc(Nc3nc4c(c(N5CCC[C@H]5CO)n3)CNC4)c2)cc(OC)c1OC` [Compound 359d, (S)-(1-(2-(1-(3,4,5-trimethoxyphenyl)-1H-imidazol-4-ylamino)-6,7-dihydro-5H-pyrrolo[3,4-d]pyrimidin-4-yl)pyrrolidin-2-yl)methanol], the IC50 was under 100 nM.
`COc1cc(-n2cnc(Nc3nc(N4CCC[C@H]4C(N)=O)nc4c3CNC4)c2)cc(OC)c1OC` [Compound 360c, (S)-1-(4-(1-(3,4,5-trimethoxyphenyl)-1H-imidazol-4-ylamino)-6,7-dihydro-5H-pyrrolo[3,4-d]pyrimidin-2-yl)pyrrolidine-2-carboxamide]: the IC50 is under 100 nM.
Regarding `COc1cc(-n2cnc(Nc3nc(N4CCC[C@H]4CO)c4ccc(-c5cccc(N)c5)cc4n3)c2)cc(OC)c1OC` [Compound 361c, (S)-(1-(7-(3-aminophenyl)-2-((1-(3,4,5-trimethoxyphenyl)-1H-imidazol-4-yl)amino)quinazolin-4-yl)pyrrolidin-2-yl)methanol], the IC50 is under 100 nM.
Consider `COc1cc(-n2cnc(Nc3nc(N4CCC[C@H]4CO)c4ccc(-c5cccc(F)c5)cc4n3)c2)cc(OC)c1OC` [Compound 362b, (S)-(1-(7-(3-fluorophenyl)-2-((1-(3,4,5-trimethoxyphenyl)-1H-imidazol-4-yl)amino)quinazolin-4-yl)pyrrolidin-2-yl)methanol], for which the IC50 is under 100 nM.
To `COc1cc(-n2cnc(Nc3nc(N4CCC[C@H]4CO)c4ccc(-c5cccc(NS(C)(=O)=O)c5)cc4n3)c2)cc(OC)c1OC` [Compound 363b, (S)—N-(3-(4-(2-(hydroxymethyl)pyrrolidin-1-yl)-2-((1-(3,4,5-trimethoxyphenyl)-1H-imidazol-4-yl)amino)quinazolin-7-yl)phenyl)methanesulfonamide] belongs under 100 nM; to `COc1cc(-n2cnc(Nc3nc(N4CCC[C@H]4CO)c4ccc(-c5cccc(NC(C)=O)c5)cc4n3)c2)cc(OC)c1OC` [Compound 364b, (S)—N-(3-(4-(2-(hydroxymethyl)pyrrolidin-1-yl)-2-((1-(3,4,5-trimethoxyphenyl)-1H-imidazol-4-yl)amino)quinazolin-7-yl)phenyl)acetamide], under 100 nM; to `COc1cc(-n2cnc(Nc3nc(N4CCC[C@H]4CO)nc4c3CN(C(=O)OC(C)(C)C)C4)c2)cc(OC)c1OC` [Compound 365a, (S)-tert-butyl 2-(2-(hydroxymethyl)pyrrolidin-1-yl)-4-(1-(3,4,5-trimethoxyphenyl)-1H-imidazol-4-ylamino)-5H-pyrrolo[3,4-d]pyrimidine-6(7H)-carboxylate], under 100 nM.
For `COc1cc(-n2cnc(Nc3nc(N4CCC[C@H]4CO)nc4c3CNC4)c2)cc(OC)c1OC` [Compound 365b, (S)-(1-(4-(1-(3,4,5-trimethoxyphenyl)-1H-imidazol-4-ylamino)-6,7-dihydro-5H-pyrrolo[3,4-d]pyrimidin-2-yl)pyrrolidin-2-yl)methanol] the value was under 100 nM.

Usually IC50 stands for the concentration needed to halve the response being measured.
